Legend:
[1] = tested on: TGFβ signaling; test: Ex vivo mouse lung biopsies treated with granulocytes, then TGFβ inhibitors; type: cell-based; conditions: for matrix invasion: in the presence of granulocytes; for phosphorylated SMAD (pSMAD): mouse lung biopsies treated with granulocytes
Protocol: (§1) C57BL/6J male mice (6-8 weeks age) used to study the movement of lung matrix. After organ withdrawal 4 mm biopsy punches of murine lungs were generated. To obtain ectopic labeling of matrix, the inventors generated a labelling solution by mixing NHS-ester 1:1 with 100 mM pH 9.0 sodium bicarbonate buffer. Sterile Whatman filter paper (Sigma Aldrich) biopsy punches where soaked in NHS-labelling solution, and locally placed on the lung biopsy surface. After one minute, the labelling punch was removed. Mouse lung biopsies were cocultured in the RPMI medium (10% FBS with 1% Pen/Strep and 0.1% AmB) consist of different sub types of immune cells (0.1×10^6 cells/biopsy) isolated from the healthy and idiopathic pulmonary fibrosis human donors. Mouse lung biopsies with immune cells were then cultured in the ex vivo condition provided with 5% C02 at 37° C.
(§2) After 48 hours, mouse lung biopsies were fixed with the 4% formalin and incubated for overnight at 4° C. followed by PBS wash. Human lung tissues where obtained, labelled, and cultivated for 24 hours as described above.
(§3) Matrix invasion was calculated using histological sections, quantifying FITC signal per area via ImageJ (1.52i). Quantification of immunolabeling was performed in randomly distributed ROIs/FOVs. Multiphoton images were analyzed using Fiji plugins Fraklac V. 2.5 and LocalThickness_V-4.0.2.
The inventors sought to characterize the signaling pathways by which immune cells trigger matrix invasion and fibrosis and we naturally sought to investigate the known chief proponent, TGFβ. They wondered whether the fibrotic cascade of immune cells might start with mesothelial TGFβ expression. Mouse lung biopsies were treated with granulocytes, followed by administering two TGFβ inhibitors, Repsox and LDN-212854, in separate experiments (FIG. 2A). Inhibition of TGFβ signaling in both chemical assays decreased phosphorylated SMAD (pSMAD), which is the major mediator of TGFβ-induced signaling. Furthermore, inhibiting TGFβ reduced matrix invasion, even in the presence of granulocytes. Moreover, adding granulocytes alone led to increased phosphorylated SMAD signaling in mesothelium. These findings indicate granulocytes trigger TGFβ expression in mesothelium to initiate matrix accumulation and irrigation.

[2] = tested on: C57BL/6J mice; test: Pharmacologic treatment regime in the bleomycin-induced lung fibrosis model; type: in vivo, mouse; conditions: for pleural matrix pools: after bleomycin-induced injury
Protocol: The inventors generated a labelling solution by mixing 5 μl NHS-ester (25 mg/ml) with 5 μl of 100 mM pH 9.0 sodium bicarbonate buffer, combining with 40 μl PBS to a total volume of 50 μl. Labelling solution was applied intrapleurally (for lung and/or heart fibrosis model) under isoflurane anesthesia with a 30 G cannula. Abdominal labeling was performed by injecting 100 μl of labelling solution intra-peritoneal (for liver and/or kidney fibrosis model).
The oropharyngeal administration of bleomycin for the induction of pulmonary fibrosis is carried out in an antagonistic anesthesia in C57BL/6J mice of both sexes (6-8 weeks age). After the toe-pinch reflex is absent, the mouse is placed on the incisors of the upper jaw and thus kept in an upright position. The tongue is carefully fixed with is held to the side with tweezers and the nose of the animal is covered with tweezers. By keeping the nose closed, the mouse is forced to breathe through the mouth. With the help of a pipette, bleomycin is dissolved in a dosage of 2 units/kg KGW in 80 μl PBS carefully into the throat. As soon as the animal has inhaled the solution, it will be
Hot plate transferred (duration approx. 30 to 60 seconds). After antagonization animals were housed for 14 days. Nintedanib was added 1 hour before bleomycin installation and every other day intra peritoneal 10 μM.
Pirfenidone (0.07 mg/kg), Nintedanib (0.21 mg/kg) and Cathepsin Inhibitor B (0.15 mg/kg) were injected 1 hour before bleomycin installation and every other day intra peritoneal in a volume of 100 μl in physiological saline solution.
as §3

[3] = tested on: fibrotic human lung tissue; test: Ex vivo matrix flow in fibrotic human lung tissue; type: cell-based
Protocol: All tissues (PFA, ST) used in this study were obtained with properly informed consent of patients. All experimental procedures were performed in accordance with the Ethics committee vote number/Study protocol number: 333-10 Parent Proposal number: BA34/2018.
as §1, §2

[4] = bleomycin, intra peritoneal 1 hour before and every other day

SMILES | matrix invasion [1] | phosphorylated SMAD (pSMAD) [1] | pleural matrix pools [2] | bleomycin-induced mortality [2, 4] | matrix invasion into lungs (matrix movements) [2, 4] | survival rates of lung injured animals [2, 4] | fibrosis development [2, 4] | bleomycin-induced mortality ([2]; bleomycin, intra peritoneal 1 hour before and every other day, listed as Cathepsin B inhibitor) | fluid matrix flows [3]
c1cc(-c2cnn3cc(-c4ccc(N5CCNCC5)cc4)cnc23)c2cccnc2c1 [LDN-212854] | reduced | decreased |  |  |  |  |  |  | 
COC(=O)c1ccc2c(c1)NC(=O)/C2=C(\Nc1ccc(N(C)C(=O)CN2CCN(C)CC2)cc1)c1ccccc1 [Nintedanib] |  |  | rescue | prevent | inhibiting matrix movements | comparable |  |  | 
Cc1ccc(=O)n(-c2ccccc2)c1 [Pirfenidone] |  |  | rescue | prevent | inhibiting matrix movements | comparable |  |  | 
Cc1cccc(-c2[nH]ncc2-c2ccc3ncccc3n2)n1 [Repsox] | reduced | decreased |  |  |  |  |  |  | 
CC(NC(=O)[C@H](Cc1ccccc1)NC(=O)OCc1ccccc1)C(=O)CF (stereo partly shown) [Z-FA-FMK] |  |  | rescue | abrogated | completely prevented | 100% | completely prevented | prevent | blocks
